System: Sinapis alba myrosinase
Assay: HPLC progress curves
Format: biochemical
Settings: pH 7.4, 37 °C; pooled wavelength data (220, 227, 235, 241 nm); myrosinase 8.83 U/ml

**Q.** How did the Km turn out when O=S(=O)(O)O/N=C(/CC(c1ccccc1)c1ccccc1)S[C@@H]1O[C@H](CO)[C@@H](O)[C@H](O)[C@H]1O [compound 5, 2,2-Diphenylethyl glucosinolate] was run?
**A.** 798 ± 71 µM
